Holding throughout (assay type): in vivo
Data set [1] has as its system susceptible strain two-spotted spider mite (Tetranychus urticae). Description: Miticidal activity against adults of two-spotted spider mite (susceptible strain), leaf disk spray test. Conditions: foliar, 48 h, spray 2 mg/cm^2 on kidney bean leaf disks, female adults, two days after treatment. Here is the method: Miticidal Activity Against Adults of Two-Spotted Spider Mite (Susceptible Strain) (Leaf Disk Spray Test)
A plastic cup having a capacity of 60 mL was half-filled with water, and a perforated cover was put thereon. Absorbent cotton was impregnated with water through the perforations, and two sheets of filter paper were overlaid thereon. Two leaves of kidney beans (Phaseolus vulgaris) cutout in a circular shape with a diameter of 2, cm, were put thereon, and ten female adults of susceptible strain two-spotted spider mite (Tetranychus urticae) were inoculated and left to stand overnight in a constant temperature chamber at 25° C. (photoperiod conditions: light period of 16 hours/dark period of 8 hours). […] Upon expiration of two days after the treatment, the number of dead mites was counted, and the mortality was calculated by the formula 1. The test was carried out twice.

In data set [2] the test system is resistant strain two-spotted spider mite (Tetranychus urticae). Description: Miticidal activity against adults of two-spotted spider mite (resistant strain), leaf disk spray test. Conditions: spray 2 mg/cm^2 on kidney bean leaf disks, female adults, two days after treatment; for Mortality (%): 100 ppm. Here is the method: Miticidal Activity Against Adults of Two-Spotted Spider Mite (Resistant Strain) (Leaf Disk Spray Test)
A plastic cup having a capacity of 60 mL was half-filled with water, and a perforated cover was put thereon. Absorbent cotton was impregnated with water through the perforations, and two sheets of filter paper were overlaid thereon. Two leaves of kidney beans (Phaseolus vulgaris) cutout in a circular shape with a diameter of 2 cm, were put thereon, and ten female adults of resistant strain two-spotted spider mite (Tetranychus urticae) were inoculated and left to stand overnight in a constant temperature chamber at 25° C. (photoperiod conditions: light period of 16 hours/dark period of 8 hours). After removing abnormal mites and dead mites, a pesticide prepared by diluting the test compound formulated in accordance with Formulation Example 2 with a diluent such as water, as shown in Table 2 was sprayed by an automatic spraying device (2 mg/cm^2). Upon expiration of two days after the treatment, the number of dead mites was counted, and the mortality was calculated by the formula 1. The test was carried out twice.

Data set [3] concerns resistant strain red mite (Panonychus citri). Description: Miticidal activity against adults of red mite (resistant strain), leaf disk spray test. Conditions: spray 2 mg/cm^2 on cinnamon leaf disks, female adults, two days after treatment; for Mortality (%): 6.25 ppm. Here is the method:
Miticidal Activity Against Adults of Red Mite (Resistant Strain) (Leaf Disk Spray Test)
0.5 mass % of agar was blended to water and put into a plastic cup having a capacity of 60 mL, and two cinnamon leaf disks were put thereon and ten female adults of resistant strain red mite (Panonychus citri) were inoculated and left to stand overnight at a constant temperature chamber at 25° C. (photoperiod conditions: light period of 16 hours/dark period of 8 hours). […] Upon expiration of two days after the treatment, the number of dead mites was counted, and the mortality was calculated by the formula 1. The test was carried out twice.

Data set [4] relates to susceptible strain two-spotted spider mite (Tetranychus urticae). The data set is described as follows: Penetration/transfer activity against two-spotted spider mite (susceptible strain), soil irrigation cup test. The following applies: 0.0031 mg a.i./seedling, soil drench 5 mL/seedling, soybean, live mites counted after 13 days. On the procedure:
Penetration/Transfer Activity Against Two-Spotted Spider Mite (Susceptible Strain) (Soil Irrigation Cup Test)
To soybean (Glycine max) planted in a plastic cup, 35 female adults of susceptible strain two-spotted spider mite (Tetranychus urticae) were inoculated and left to stand overnight at a constant temperature chamber at 25° C. (photoperiod conditions: light period of 16 hours/dark period of 8 hours). A test pesticide prepared by diluting the test compound formulated in accordance with Formulation Example 2 to a predetermined concentration as disclosed in Table 4, was applied by soil drench treatment (5 mL/seedling). Upon expiration of 13 days, the number of live mites was counted, and the preventive value was calculated by the formula 2. The test was carried out twice.

For `Cc1cc(F)c(-n2nc(C(F)(F)F)nc2N)cc1[S+]([O-])CC(F)(F)F` (racemic) [Compound No. II, 1-[2-fluoro-4-methyl-5-(2,2,2-trifluoroethylsulfinyl)phenyl]-5-amino-3-(trifluoromethyl)-1H-1,2,4-triazole, reference compound], the mortality at 3.125 ppm in data set [1] was found to be 8%. Moreover, in data set [2] (Tetranychus urticae, foliar, 48 h), the mortality at 100 ppm is 16%. This compound gave a mortality at 6.25 ppm in data set [3] (Panonychus citri, foliar, 48 h) of 36%. Moreover, the “Preventive value (%)” value in data set [4] amounted to 0%.

In data set [1], `Cc1cc(F)c(-n2nc(C(F)(F)F)nc2N)cc1[S+]([O-])CC(F)(F)F` (single isomer, unassigned; (+)) [Compound No. I, (+)-1-[2-fluoro-4-methyl-5-(2,2,2-trifluoroethylsulfinyl)phenyl]-5-amino-3-(trifluoromethyl)-1H-1,2,4-triazole] came in with a mortality at 3.125 ppm of 79%. The “Mortality (%)” value in data set [2] came to 94%; in data set [3], 93%. In addition, the “Preventive value (%)” value in data set [4] came out at 100%.

In data set [1] (6.25 ppm), `Cc1cc(F)c(-n2nc(C(F)(F)F)nc2N)cc1[S+]([O-])CC(F)(F)F` (single isomer, unassigned; (-)) [Compound No. III, (−)-1-[2-fluoro-4-methyl-5-(2,2,2-trifluoroethylsulfinyl)phenyl]-5-amino-3-(trifluoromethyl)-1H-1,2,4-triazole] gave a mortality at 6.25 ppm of 0%. The “Mortality (%)” value in data set [2] and in data set [3] was 0% each time. In addition, the “Preventive value (%)” value in data set [4] came to 0%.

The term mortality denotes the percentage killed. Low readings indicate a weak lethal effect, high ones a strong lethal effect.
